Measurements reported in patent US8022056B2, “Compositions and methods for the treatment of cancer” (Tautatis, Inc, priority 2006, dated 2011).
pIC50: −log10 of the molar value. Where “and” joins values, the source holds several entries; their conditions need not be identical. Equal entries are not always repeated.

Experiments:
PKC = assay: Kinase inhibition under standard conditions, PKC; type: biochemical
NCI-H23 xenograft = assay: Mouse xenograft model NCI-H23; type: in vivo; settings: Lung, Ras/p53; oral twice daily dosing
Description: (§1) The efficacy of the compound of the formula 1 was confirmed in mouse tumor xenograft models, employing the NMRI(nu/nu) strain of mice. For example, cells from the human tumor cell lines MDA-MB-231, U373, and HT29 were pre-incubated subcutaneously in several nude mice to select for the most robustly growing cell population. After having grown to a sufficient size after 2-3 weeks, a piece of about 2 mm^3 volume of the most suitable tumor was transplanted subcutaneously into the region of the thoracic mammary fat pads, an area ensuring a high degree of vascularization of the grafted tissue. […] During the course of the treatment, the weight of the animals and the size of the transplanted tumor was monitored three times a week. […] These doses are best determined separately for each individual mouse strain employed.
(§2) To establish a solid tumour 3×10^6 tumor cells suspended in 100 μl of serum free medium (RPMI) were inoculated subcutaneously into the region of the thoracic mammary fat pads of 5 Male NMRI(nu/nu) mice of 8-10 weeks of age. […] During the course of the treatment body weight changes and tumor growth were recorded three times a week. Growth curves were plotted together with standard deviations and the significance of differences was determined using an unpaired t-test in FIG. 11. […]

SK-MEL-5 xenograft = assay: Mouse xenograft model SK-MEL-5; type: in vivo; settings: Melanoma, Raf/CDKN2A; oral twice daily dosing
Description: as §1, §2

[1] = biological target: T1, ABC-B1 (glycoprotein gp170) (Homo sapiens, UniProt P08183); assay: Competition with MDR-driven efflux of calcein-AM in Kb-V1 cells (FACS); type: cell-based
T1 construct: Kb-V1 cells expressing high levels of gp170; endogenous in cells; host or cells: Kb-V1 cells
From the text: (§3) FIG. 6 compares the recognition of compound 1 and of the compound 6 by two frequently involved multi-drug resistance proteins ABC-B1 (glycoprotein gp170) (A), and ABC-G2 (breast cancer resistance protein BCRP) (B). Measurements were based on competition with the MDR-driven efflux of calcein-AM in Kb-V1 cells expressing high levels of gp170, or competition with the efflux of mitoxandrone in MCF-7 cells by the respective compounds within their effective concentration range. Uptake of fluorescent reporter compounds by competition with 1 or 6 was assessed by FACS as described in Mueller et al., Cancer Chemother. Pharmacol. 59, 157-164 (2007).

ERK2 = ERK2 (Homo sapiens, UniProt P28482); assay: Kinase inhibition under standard conditions, ERK2; type: biochemical
T-47D xenograft = assay: Mouse xenograft model T-47D; type: in vivo; settings: Breast, p53/PI3K; oral twice daily dosing
Description: as §1, §2

HT29 xenograft = assay: Mouse xenograft model HT29; type: in vivo
Description: The efficacy of the compound of the formula 1 was confirmed in mouse tumor xenograft models, employing the NMRI(nu/nu) strain of mice. For example, cells from the human tumor cell lines MDA-MB-231, U373, and HT29 were pre-incubated subcutaneously in several nude mice to select for the most robustly growing cell population. After having grown to a sufficient size after 2-3 weeks, a piece of about 2 mm^3 volume of the most suitable tumor was transplanted subcutaneously into the region of the thoracic mammary fat pads, an area ensuring a high degree of vascularization of the grafted tissue. When tumors reached a diameter of about 3 mm mice were assigned to treatment groups with about equal average tumor sizes, and therapy was started. Application of the compound of the formula 1 was performed preferably by oral gavage twice daily for continuous exposure, with doses between 1 and 10 mg/kg of the compound of the formula 1 as a solid suspension in water, or in aqueous liquid formulations containing common adjuvants, like polyethylene glycols (PEG), preferentially in form of a salt with a physiologically applicable acid, including but not limited to hydrochloric acid, phosphoric acid, lactic acid, malonic acid, citric acid, etc. Other suitable adjuvants include but are not limited to polyvinyl pyrrolidone (Povidone) of varying average molecular weights. During the course of the treatment, the weight of the animals and the size of the transplanted tumor was monitored three times a week. For maximum efficacy, a daily treatment regimen was chosen at the maximally applicable dose, as defined by the absence of significant weight loss over the course of the treatment. These doses are best determined separately for each individual mouse strain employed.
To establish a solid tumour 3×10^6 tumor cells suspended in 100 μl of serum free medium (RPMI) were inoculated subcutaneously into the region of the thoracic mammary fat pads of 5 Male NMRI(nu/nu) mice of 8-10 weeks of age. After 3-4 weeks tumor bearing mice were killed by cervical dislocation and the tumor of one selected donor mouse was excised under sterile conditions. Vital tumor regions were cut into 2 mm^3 pieces, picked up by a trocar (13 ga), and transplanted subcutaneously into NMRI(nu/nu) of the same stock. The tumor grade of the transplanted tissue was checked by routine histopathology (HE staining). Tumor growth and body weight were registered weekly during tumor establishment. When subcutaneous tumors reached diameters of about 3 mm the animals were randomly assigned to a treatment and a vehicle control group, each consisting of 10-12 animals, and a therapeutic regimen was started comprising twice daily applications by oral gavage of 2.5 mg/kg of compound 1 in a vehicle of 50 mM (−)-lactic acid in 50% polyethylene glycol 400. During the course of the treatment body weight changes and tumor growth were recorded three times a week. Growth curves were plotted together with standard deviations and the significance of differences was determined using an unpaired t-test in FIG. 11. In untreated mice tumor areas had grown after 9 days by about 150%, while in the treated group average tumor areas had grown only by about 50% (P=0.012).

[2] = test system: MDA-MB-231 breast cancer cell line; assay: Long-term growth inhibition, crystal violet staining; type: cell-based, human
Description: The human estrogen receptor and EGF receptor negative MDA-MB-231 (HTB 26) breast cancer cell line (obtained from ATCC, Rockville, USA) were cultured in McCoy's 5A medium containing L-glutamine, 2.2 g/l NaHCO3 and 5% fetal calf serum. Cells were maintained in a water saturated atmosphere (95% air/5% carbon dioxide) at 37° C. in 75-cm^2 culture flasks, and were serially passaged following trypsinization using 0.05% trypsin/0.02% EDTA.
For proliferation assays tumor cell suspensions (100 μl/well) were seeded into 96-well flat bottomed microtitration plates at a density of ca. 15 cells/microscopic field (magnification 320×). After 2-3 days the culture medium was removed by suction and replaced by fresh medium (200 μl/well) containing varying concentrations of the compound of the formula 1 or vehicle (0.5% DMSO). Compound 1 was added as […] concentrated feed solutions. On every plate 16 wells served as controls and 16 wells were used per concentration of 1. After various times of incubation the cells were fixed with glutardialdehyde and stored in a refrigerator. At the end of the assay all plates were processed simultaneously (staining with 0.02% aqueous crystal violet solution (100 μl/well). Excess dye was removed by rinsing the trays with water for 20 min. The stain bound by the cells was redissolved in 70% ethanol (180 μl/well) while shaking the microplates for about 3 hours. Absorbance (proportional to cell mass) was measured at 578 nm using a BIOTEK 309 Autoreader. The results (mean values±standard deviation) were plotted as growth curves.

[3] = biological target: T2, ABC-G2 (breast cancer resistance protein BCRP) (Homo sapiens, UniProt Q9UNQ0); assay: Competition with efflux of mitoxandrone in MCF-7 cells (FACS); type: cell-based
T2 construct: endogenous in cells; host or cells: MCF-7 cells
From the text: as §3

PKA = assay: Kinase inhibition under standard conditions, PKA; type: biochemical
[4] = Colon, Raf/PI3K/p53/APC, 2.5 mg/kg p.o. twice daily, 30 days

Chain of ERK2 (P28482 whole entry, species assumed): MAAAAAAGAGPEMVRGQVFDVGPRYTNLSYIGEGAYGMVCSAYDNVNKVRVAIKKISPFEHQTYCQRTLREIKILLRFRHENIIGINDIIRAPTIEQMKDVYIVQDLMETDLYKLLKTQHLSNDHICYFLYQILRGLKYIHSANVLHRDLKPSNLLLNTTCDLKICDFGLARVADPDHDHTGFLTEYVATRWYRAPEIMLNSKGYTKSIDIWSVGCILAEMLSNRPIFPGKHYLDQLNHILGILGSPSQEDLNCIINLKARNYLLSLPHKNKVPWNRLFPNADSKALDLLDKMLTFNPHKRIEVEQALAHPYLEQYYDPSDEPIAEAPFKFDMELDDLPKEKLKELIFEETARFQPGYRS
T2 sequence (Q9UNQ0 whole entry): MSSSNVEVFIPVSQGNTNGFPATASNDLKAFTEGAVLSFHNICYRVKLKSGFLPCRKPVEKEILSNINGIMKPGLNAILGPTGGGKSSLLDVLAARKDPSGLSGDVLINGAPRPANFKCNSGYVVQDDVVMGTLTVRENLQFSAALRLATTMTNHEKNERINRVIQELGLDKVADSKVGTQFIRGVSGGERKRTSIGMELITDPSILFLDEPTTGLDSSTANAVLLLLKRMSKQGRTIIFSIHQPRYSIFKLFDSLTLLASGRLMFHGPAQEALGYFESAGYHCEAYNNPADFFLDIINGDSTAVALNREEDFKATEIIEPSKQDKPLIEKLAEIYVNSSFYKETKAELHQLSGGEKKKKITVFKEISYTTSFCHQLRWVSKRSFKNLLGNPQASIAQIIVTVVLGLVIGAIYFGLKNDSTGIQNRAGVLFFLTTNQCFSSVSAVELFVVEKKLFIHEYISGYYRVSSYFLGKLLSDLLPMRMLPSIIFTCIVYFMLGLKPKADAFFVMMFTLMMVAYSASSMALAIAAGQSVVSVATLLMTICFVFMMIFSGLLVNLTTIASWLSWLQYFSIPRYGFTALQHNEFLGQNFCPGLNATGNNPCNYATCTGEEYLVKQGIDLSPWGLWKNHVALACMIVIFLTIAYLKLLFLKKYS
T1 sequence (P08183 whole entry): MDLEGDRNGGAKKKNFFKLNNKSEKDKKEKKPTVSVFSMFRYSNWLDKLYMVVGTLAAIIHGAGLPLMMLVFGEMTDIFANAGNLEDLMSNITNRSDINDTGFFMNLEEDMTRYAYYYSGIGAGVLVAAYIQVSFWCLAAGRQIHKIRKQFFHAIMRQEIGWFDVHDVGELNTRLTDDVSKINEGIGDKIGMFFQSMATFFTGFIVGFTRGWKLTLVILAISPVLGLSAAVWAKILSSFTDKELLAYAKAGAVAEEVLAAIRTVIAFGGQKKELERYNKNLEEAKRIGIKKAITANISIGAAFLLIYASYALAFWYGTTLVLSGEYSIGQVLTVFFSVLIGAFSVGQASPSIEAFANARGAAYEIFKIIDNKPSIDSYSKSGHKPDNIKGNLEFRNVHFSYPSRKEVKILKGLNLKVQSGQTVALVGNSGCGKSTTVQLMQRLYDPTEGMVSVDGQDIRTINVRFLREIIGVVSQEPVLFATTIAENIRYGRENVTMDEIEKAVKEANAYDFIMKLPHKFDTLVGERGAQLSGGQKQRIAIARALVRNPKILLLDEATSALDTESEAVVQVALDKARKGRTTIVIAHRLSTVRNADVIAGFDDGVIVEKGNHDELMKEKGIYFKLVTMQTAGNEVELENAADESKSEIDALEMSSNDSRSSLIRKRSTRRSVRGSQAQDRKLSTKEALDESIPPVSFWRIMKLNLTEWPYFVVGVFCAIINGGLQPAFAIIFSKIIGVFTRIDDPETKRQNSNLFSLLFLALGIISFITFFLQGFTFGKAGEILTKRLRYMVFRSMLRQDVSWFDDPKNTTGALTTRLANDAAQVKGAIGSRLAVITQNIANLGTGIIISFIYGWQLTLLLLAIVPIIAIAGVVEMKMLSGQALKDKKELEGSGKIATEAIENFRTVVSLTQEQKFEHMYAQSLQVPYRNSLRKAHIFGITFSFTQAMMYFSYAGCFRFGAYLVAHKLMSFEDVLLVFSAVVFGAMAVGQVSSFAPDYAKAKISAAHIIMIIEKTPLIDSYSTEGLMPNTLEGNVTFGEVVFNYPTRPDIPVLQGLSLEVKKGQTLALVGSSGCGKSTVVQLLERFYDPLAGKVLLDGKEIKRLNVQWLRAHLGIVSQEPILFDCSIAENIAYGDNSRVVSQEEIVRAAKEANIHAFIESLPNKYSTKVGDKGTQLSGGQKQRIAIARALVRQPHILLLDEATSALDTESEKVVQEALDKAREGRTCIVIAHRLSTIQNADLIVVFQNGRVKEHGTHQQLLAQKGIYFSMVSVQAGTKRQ

CNC(=O)[C@@]1(N)C[C@H]2O[C@]1(C)n1c3ccccc3c3c4c(c5c6ccccc6n2c5c31)C(=O)NC4 [Compound 1]
pIC50 (PKC): 5.89 | Mean % Inhibition (NCI-H23 xenograft): 92% | N tumors with no/neg. growth (NCI-H23 xenograft): 5 of 10 | Mean % Inhibition (SK-MEL-5 xenograft): 122% | N tumors with no/neg. growth (SK-MEL-5 xenograft): 7 of 10 | separation of anti-proliferative potency range from uptake concentration for efflux transporter, versus compound 6 [1]: more clearly separated | pIC50 (ERK2): 7.19 | Mean % Inhibition (T-47D xenograft): 81% | N tumors with no/neg. growth (T-47D xenograft): 4 of 10 | signs of organ toxicity in heart, lung, kidney, liver, duodenum, and colon (HT29 xenograft; 30 days of continuous treatment, all 11 animals): complete absence of any signs of organ toxicity | effect on body weight (HT29 xenograft; 30 days, 2.5 mg/kg p.o. twice daily): absence of any significant effect on body weight | irritation in the mucosal layers of duodenum and colon tissues (HT29 xenograft; 30 days, oral route): absence of any signs of irritation | Mean % Inhibition (HT29 xenograft; [4]): 70% | N tumors with no/neg. growth (HT29 xenograft; [4]): 2 out of 10 and 2 of 11 | growth of average tumor areas in treated group (HT29 xenograft; after 9 days, 2.5 mg/kg p.o. twice daily): about 50% | growth of MDA-MB-231 cells ([2]; 10 nM, 1 week of exposure): almost completely prevents the growth | prolonged effect on growth after a single short exposure ([2]; MDA-MB-231, single exposure 1 to 6 hrs, 100 nM): sustained inhibition over at least one week | anti-tumor activity compared with cis-platin ([2]; MDA-MB-231 growth): substantially more potent and efficacious | anti-tumor activity compared with vinblastine ([2]; MDA-MB-231 growth): matches the activity of vinblastine | separation of anti-proliferative potency range from uptake concentration for efflux transporter, versus compound 6 [3]: more clearly separated | pIC50 (PKA): 6.52
